Experiment [1] relates to RBL-2H3. The experiment can be described thus: Cytotoxicity against Wistar rat RBL-2H3 cells assessed as cell viability at 1 uM incubated for 24 hrs by MTT assay. It counts as functional. The conditions noted are these: read-out: Activity. On the technique in general: Tetrazolium dyes change colour on reduction, which living cells bring about.
The subject of experiment [2] is RBL-2H3. The experiment can be described thus: Cytotoxicity against Wistar rat RBL-2H3 cells assessed as cell viability at 5 uM incubated for 24 hrs by MTT assay. It counts as functional. The conditions noted are these: read-out: Activity.
The subject of experiment [3] is RBL-2H3. The experiment in a line: Cytotoxicity against Wistar rat RBL-2H3 cells assessed as cell viability at 25 uM incubated for 24 hrs by MTT assay. It counts as functional. The conditions noted are these: read-out: Activity.
For experiment [4], the system named is RBL-2H3. The experiment can be described thus: Cytotoxicity against Wistar rat RBL-2H3 cells assessed as cell viability at 125 uM incubated for 24 hrs by MTT assay. Type of experiment: functional. The conditions noted are these: read-out: Activity.
In experiment [5] the target is Sodium-dependent serotonin transporter (Rattus norvegicus) (UniProt P31652). The experiment in a line: Inhibition of SERT in Wistar rat RBL-2H3 cells assessed as decrease in fluorescence intensity at 10 uM preincubated for 2 hrs followed by APP+ addition and measured after 1 hr by fluorescence based assay. Type of experiment: cell-based. The conditions noted are these: time 3.0 hrs.
Sodium-dependent serotonin transporter (Rattus norvegicus), sequence (P31652 whole entry): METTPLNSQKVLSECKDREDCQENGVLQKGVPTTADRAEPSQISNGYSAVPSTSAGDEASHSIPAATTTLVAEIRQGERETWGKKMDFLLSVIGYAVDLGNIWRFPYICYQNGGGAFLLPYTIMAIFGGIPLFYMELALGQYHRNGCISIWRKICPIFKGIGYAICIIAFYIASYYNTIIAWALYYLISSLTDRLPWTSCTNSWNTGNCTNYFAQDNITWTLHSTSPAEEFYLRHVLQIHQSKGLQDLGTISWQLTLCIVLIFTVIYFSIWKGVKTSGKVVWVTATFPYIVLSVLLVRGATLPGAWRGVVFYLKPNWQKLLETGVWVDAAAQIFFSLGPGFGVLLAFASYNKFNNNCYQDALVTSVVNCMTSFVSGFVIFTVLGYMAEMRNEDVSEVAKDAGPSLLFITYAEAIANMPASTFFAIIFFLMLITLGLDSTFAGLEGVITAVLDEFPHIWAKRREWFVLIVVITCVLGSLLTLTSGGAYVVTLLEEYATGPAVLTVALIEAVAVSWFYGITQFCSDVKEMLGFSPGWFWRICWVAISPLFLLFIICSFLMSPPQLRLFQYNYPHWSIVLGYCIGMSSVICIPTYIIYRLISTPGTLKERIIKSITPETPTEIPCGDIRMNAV

Experiment [6] concerns RBL-2H3. The experiment in a line: Cytotoxicity against Wistar rat RBL-2H3 cells assessed as cell viability over 20 uM by MTT assay. Type of experiment: functional, cell-based.
The subject of experiment [7] is RBL-2H3. The experiment can be described thus: Induction of cell death in Wistar rat RBL-2H3 cells assessed as cell viability over 20 uM by MTT assay. Type of experiment: functional, cell-based.
Experiment [8] relates to CHO-K1. The experiment in a line: Agonist activity at mu opioid receptor in CHO-K1 cells assessed as increase in intracellular fluorescence intensity at 30 uM incubated for 90 sec by microplate reader assay. The following applies: Cricetulus griseus, filed as agonist. It counts as cell-based.
Experiment [9] deals with CHO-K1. The experiment can be described thus: Antagonist activity at mu opioid receptor in CHO-K1 cells assessed as intracellular fluorescence intensity at 50 uM incubated for 2 mins by microplate reader assay. It counts as cell-based. The conditions noted are these: Cricetulus griseus.
In experiment [10] the test system is CHO-K1. The experiment can be described thus: Agonist activity at mu opioid receptor in CHO-K1 cells assessed as increase in intracellular fluorescence intensity at 50 uM incubated for 90 sec by microplate reader assay. Type of experiment: cell-based. The conditions noted are these: Cricetulus griseus.
Experiment [11] concerns CHO-K1. The experiment can be described thus: Agonist activity at CCK-B receptor in CHO-K1 cells incubated for 90 sec by microplate reader assay. Type of experiment: cell-based. The following applies: Cricetulus griseus.
In experiment [12] the test system is CHO-K1. The experiment in a line: Antagonist activity at CCK-B receptor in CHO-K1 cells at 50 uM incubated for 90 sec by microplate reader assay. It counts as cell-based. The following applies: Cricetulus griseus.

These results are taken from ChEMBL document CHEMBL6083255, “Synthesis and biological evaluation of novel isobenzofuran-1(3H)-one derivatives as antidepressant agents” (2024).

The source made the active and inactive calls. The rule behind the calls is not given here.

Turning to `CCN(CC)CC1(c2ccccc2)OC(=O)c2ccccc21` (stereo not drawn), the viability at 1 µM with RBL-2H3 [1] stood at 106%. In addition, in the experiment with RBL-2H3 [2], the viability at 5 µM came to 113%. In addition, in the experiment on RBL-2H3 [3], the viability at 25 µM turned out to be 125%. The viability at 125 µM in the experiment with RBL-2H3 [4] came to 127%. Further, in experiment [5], the outcome was Active.

Turning to `CCOC(=O)C1CCN(CC2(c3ccc(C)cc3)OC(=O)c3ccccc32)CC1` (stereo not drawn), the viability at 1 µM in the experiment on RBL-2H3 [1] was determined as 102%. Further, the viability at 5 µM with RBL-2H3 [2] is 108%. Besides, in the experiment on RBL-2H3 [3], the viability at 25 µM is 125%. The viability at 125 µM in the experiment with RBL-2H3 [4] was found to be 157%. Besides, the result in [5] was inactive.

In the case of `CNCCC(Oc1ccc(C(F)(F)F)cc1)c1ccccc1` (stereo not drawn), the result (with RBL-2H3 [6]; in the experiment with RBL-2H3 [7]; in experiment [5]) was Active.

`CC(=O)N1CCN(CC2(c3ccc(Cl)cc3)OC(=O)c3ccccc32)CC1` (stereo not drawn): the viability at 1 µM with RBL-2H3 [1] is 99.8%. Moreover, the viability at 5 µM with RBL-2H3 [2] is 106%. The viability at 25 µM in the experiment with RBL-2H3 [3] amounted to 125%. Moreover, the viability at 125 µM in the experiment on RBL-2H3 [4] turned out to be 141%. The outcome in experiment [5] was Active.

Turning to `C[C@@H](NC(=O)[C@@H](N)Cc1ccc(O)cc1)C(=O)NCC(=O)N(C)[C@@H](Cc1ccccc1)C(=O)NCCO`, the result in the experiment on CHO-K1 [8] was Active.

Take `C=CCN1CC[C@]23c4c5ccc(O)c4O[C@H]2C(=O)CC[C@@]3(O)[C@H]1C5`: the outcome in the experiment with CHO-K1 [9] (filed as antagonist) was Active.

Consider `O=C1OC(CN2CCCCCC2)(c2ccccc2)c2ccccc21` (stereo not drawn), for which the viability at 1 µM in the experiment on RBL-2H3 [1] worked out at 97.8%. Also, the viability at 5 µM in the experiment on RBL-2H3 [2] worked out at 101%. Further, the viability at 25 µM in the experiment on RBL-2H3 [3] is 95.5%. For the same compound, in the experiment on RBL-2H3 [4], the viability at 125 µM worked out at 100%. For the same compound, in experiment [5], the Activity result was “Active; Activity Stronger Than Fluoxetine”. The outcome with CHO-K1 [10], with CHO-K1 [9], with CHO-K1 [11] and in the experiment with CHO-K1 [12] was inactive.

For `O=C1OC(CN2CCCC2)(c2ccccc2)c2ccccc21` (stereo not drawn), the viability at 1 µM with RBL-2H3 [1] was determined as 119%. For the same compound, in the experiment with RBL-2H3 [2], the viability at 5 µM stood at 139%. Further, the viability at 25 µM in the experiment with RBL-2H3 [3] came to 133%. In addition, the viability at 125 µM with RBL-2H3 [4] stood at 181%. For the same compound, the outcome in experiment [5] was Active.

As to `Cc1ccc(C2(CN3CCCC3)OC(=O)c3ccccc32)cc1` (stereo not drawn), the viability at 1 µM in the experiment with RBL-2H3 [1] was determined as 94.8%. In the experiment on RBL-2H3 [2], the viability at 5 µM is 95.5%. Moreover, the viability at 25 µM in the experiment with RBL-2H3 [3] amounted to 100%. The viability at 125 µM with RBL-2H3 [4] amounted to 122%. Further, the result in [5] was Active.

Take `CC1CCCN(CC2(c3ccccc3)OC(=O)c3ccccc32)C1` (stereo not drawn): in the experiment with RBL-2H3 [1], the viability at 1 µM was 92.7%. Moreover, in the experiment with RBL-2H3 [2], the viability at 5 µM was found to be 101%. The viability at 25 µM in the experiment with RBL-2H3 [3] is 116%. Further, the viability at 125 µM with RBL-2H3 [4] was 141%. The outcome in experiment [5] was Active.

Turning to `CC(=O)N1CCN(CC2(c3ccc(C)cc3)OC(=O)c3ccccc32)CC1` (stereo not drawn), the viability at 1 µM in the experiment on RBL-2H3 [1] turned out to be 93.3%. Further, the viability at 5 µM with RBL-2H3 [2] stood at 97.2%. Also, in the experiment on RBL-2H3 [3], the viability at 25 µM is 119%. Further, the viability at 125 µM in the experiment on RBL-2H3 [4] is 120%. For the same compound, in experiment [5], the outcome was Active.

For `CCOC(=O)C1CCN(CC2(c3ccc(Cl)cc3)OC(=O)c3ccccc32)CC1` (stereo not drawn), the viability at 1 µM in the experiment on RBL-2H3 [1] worked out at 99%. Also, the viability at 5 µM in the experiment on RBL-2H3 [2] was found to be 97%. Further, the viability at 25 µM in the experiment on RBL-2H3 [3] came to 96.4%. Moreover, the viability at 125 µM in the experiment on RBL-2H3 [4] amounted to 99%. Moreover, in [5], the outcome was inactive.

Take `Cc1ccc(C2(CN3CCCC(C)C3)OC(=O)c3ccccc32)cc1` (stereo not drawn): the viability at 1 µM with RBL-2H3 [1] came out at 97.6%. Further, the viability at 5 µM with RBL-2H3 [2] was found to be 101%. The viability at 25 µM in the experiment with RBL-2H3 [3] was 121%. Further, the viability at 125 µM with RBL-2H3 [4] was 157%. Also, the result in experiment [5] was inactive.

On to `Cc1ccc(C2(CN3CCCCCC3)OC(=O)c3ccccc32)cc1` (stereo not drawn), for which the viability at 1 µM in the experiment on RBL-2H3 [1] was determined as 98.8%. Further, in the experiment with RBL-2H3 [2], the viability at 5 µM was determined as 106%. Further, in the experiment on RBL-2H3 [3], the viability at 25 µM came out at 140%. In addition, the viability at 125 µM in the experiment on RBL-2H3 [4] was 171%. Also, the result in [5] was inactive.

Regarding `O=C1OC(CN2CCCCC2)(c2ccccc2)c2ccccc21` (stereo not drawn), the viability at 1 µM in the experiment with RBL-2H3 [1] is 99.2%. Also, the viability at 5 µM in the experiment with RBL-2H3 [2] amounted to 102%. For the same compound, the viability at 25 µM in the experiment on RBL-2H3 [3] turned out to be 118%. In addition, the viability at 125 µM in the experiment with RBL-2H3 [4] amounted to 112%. Besides, in [5], the result was Active.

Consider `O=C1OC(CN2CCCCCC2)(c2ccc(Cl)cc2)c2ccccc21` (stereo not drawn), for which, in the experiment on RBL-2H3 [1], the viability at 1 µM is 104%. The viability at 5 µM in the experiment with RBL-2H3 [2] was 109%. In the experiment on RBL-2H3 [3], the viability at 25 µM was determined as 119%. The viability at 125 µM with RBL-2H3 [4] turned out to be 144%. Further, in experiment [5], the result was Active.

In the case of `CC1CCCN(CC2(c3ccc(Cl)cc3)OC(=O)c3ccccc32)C1` (stereo not drawn), in the experiment on RBL-2H3 [1], the viability at 1 µM worked out at 99.2%. Moreover, the viability at 5 µM with RBL-2H3 [2] is 98%. The viability at 25 µM with RBL-2H3 [3] was 102%. Besides, the viability at 125 µM in the experiment with RBL-2H3 [4] amounted to 104%. In addition, the outcome in [5] was Active.

Take `CC(=O)N1CCN(CC2(c3ccccc3)OC(=O)c3ccccc32)CC1` (stereo not drawn): the viability at 1 µM in the experiment with RBL-2H3 [1] amounted to 102%. Further, in the experiment on RBL-2H3 [2], the viability at 5 µM is 109%. The viability at 25 µM with RBL-2H3 [3] turned out to be 129%. Further, the viability at 125 µM in the experiment on RBL-2H3 [4] stood at 165%. The result in experiment [5] was inactive.

As for `O=C1OC(CN2CCCCC2)(c2ccc(Cl)cc2)c2ccccc21` (stereo not drawn), the viability at 1 µM in the experiment with RBL-2H3 [1] is 97.5%. Further, the viability at 5 µM with RBL-2H3 [2] is 98.1%. Moreover, in the experiment with RBL-2H3 [3], the viability at 25 µM was 107%. In addition, the viability at 125 µM in the experiment with RBL-2H3 [4] was 125%. Further, in experiment [5], the Activity result is “Active; Activity Stronger Than Fluoxetine”. Besides, the outcome in the experiment on CHO-K1 [10], in the experiment on CHO-K1 [9], in the experiment on CHO-K1 [11] and in the experiment with CHO-K1 [12] was inactive.

As for `CCN(CC)CC1(c2ccc(C)cc2)OC(=O)c2ccccc21` (stereo not drawn), in the experiment with RBL-2H3 [1], the viability at 1 µM came out at 101%. Moreover, in the experiment with RBL-2H3 [2], the viability at 5 µM amounted to 106%. Moreover, the viability at 25 µM in the experiment with RBL-2H3 [3] stood at 123%. Besides, the viability at 125 µM in the experiment with RBL-2H3 [4] amounted to 160%. Besides, the outcome in [5] was Active.

Regarding `Cc1ccc(C2(CN3CCCCC3)OC(=O)c3ccccc32)cc1` (stereo not drawn), the viability at 1 µM in the experiment on RBL-2H3 [1] was found to be 101%. The viability at 5 µM in the experiment with RBL-2H3 [2] turned out to be 98.4%. Also, the viability at 25 µM with RBL-2H3 [3] worked out at 99%. Also, the viability at 125 µM with RBL-2H3 [4] is 108%. In addition, the result in experiment [5] was Active.

With `CCOC(=O)C1CCN(CC2(c3ccccc3)OC(=O)c3ccccc32)CC1` (stereo not drawn), the viability at 1 µM with RBL-2H3 [1] was found to be 99.7%. For the same compound, the viability at 5 µM in the experiment with RBL-2H3 [2] is 105%. Besides, in the experiment on RBL-2H3 [3], the viability at 25 µM amounted to 130%. Also, in the experiment with RBL-2H3 [4], the viability at 125 µM was 178%. In addition, the outcome in experiment [5] was inactive.
